Measurements: PubChem BioAssay (NCI)
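GI50: concentration for 50% inhibition of growth. The concentration for full growth arrest is given as TGI.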

Experiments:
Assay in all cases: growth of human tumour cells (NCI), 384-well format
786-0 renal = test system: 786-0 renal
A498 renal = test system: A498 renal
A549 NSCLC = test system: A549 NSCLC
ACHN renal = test system: ACHN renal
BT-549 breast = test system: BT-549 breast
CAKI-1 renal = test system: CAKI-1 renal
CCRF-CEM leukemia = test system: CCRF-CEM leukemia
COLO 205 colon = test system: COLO 205 colon
DU-145 prostate = test system: DU-145 prostate
HCC-2998 colon = test system: HCC-2998 colon
HCT-116 colon = test system: HCT-116 colon
HCT-15 colon = test system: HCT-15 colon
HL-60(TB) leukemia = test system: HL-60(TB) leukemia
HOP-62 NSCLC = test system: HOP-62 NSCLC
HOP-92 NSCLC = test system: HOP-92 NSCLC
HT29 colon = test system: HT29 colon
IGROV1 ovarian = test system: IGROV1 ovarian
KM12 colon = test system: KM12 colon
LOX IMVI melanoma = test system: LOX IMVI melanoma
M14 melanoma = test system: M14 melanoma
MALME-3M melanoma = test system: MALME-3M melanoma
MCF7 breast = test system: MCF7 breast
MDA-MB-231 breast = test system: MDA-MB-231 breast
MDA-MB-435 melanoma = test system: MDA-MB-435 melanoma
MDA-MB-468 breast = test system: MDA-MB-468 breast
MOLT-4 leukemia = test system: MOLT-4 leukemia
NCI-H226 lung = test system: NCI-H226 lung
NCI-H23 lung = test system: NCI-H23 lung
NCI-H322M lung = test system: NCI-H322M lung
NCI-H460 NSCLC = test system: NCI-H460 NSCLC
NCI-H522 lung = test system: NCI-H522 lung
NCI/ADR-RES ovarian = test system: NCI/ADR-RES ovarian
OVCAR-3 ovarian = test system: OVCAR-3 ovarian
OVCAR-4 ovarian = test system: OVCAR-4 ovarian
OVCAR-5 ovarian = test system: OVCAR-5 ovarian
OVCAR-8 ovarian = test system: OVCAR-8 ovarian
PC-3 prostate = test system: PC-3 prostate
RPMI-8226 leukemia = test system: RPMI-8226 leukemia
RXF 393 renal = test system: RXF 393 renal
SF-268 CNS = test system: SF-268 CNS
SF-295 CNS = test system: SF-295 CNS
SF-539 CNS = test system: SF-539 CNS
SK-MEL-2 melanoma = test system: SK-MEL-2 melanoma
SK-MEL-28 melanoma = test system: SK-MEL-28 melanoma
SK-MEL-5 melanoma = test system: SK-MEL-5 melanoma
SK-OV-3 ovarian = test system: SK-OV-3 ovarian
SN12C renal = test system: SN12C renal
SNB-19 CNS = test system: SNB-19 CNS
SR leukemia = test system: SR leukemia
SW-620 colon = test system: SW-620 colon
T-47D breast = test system: T-47D breast
TK-10 renal = test system: TK-10 renal
U251 glioblastoma = test system: U251 glioblastoma
UACC-257 melanoma = test system: UACC-257 melanoma
UACC-62 melanoma = test system: UACC-62 melanoma
UO-31 renal = test system: UO-31 renal

In the case of `Cc1ncc(NC(=O)c2ccc(CN3CCN(C)CC3)c(C(F)(F)F)c2)cc1Nc1nccc(-c2cccnc2)n1`, the GI50 (786-0 renal) is reported as 1510 nM, the TGI (786-0 renal) is reported as 2890 nM and the GI50 (A498 renal) is reported as 1890 nM. For the same molecule, the TGI (A498 renal) was 3.55 µM, the GI50 (A549 NSCLC) was 2540 nM and the TGI (A549 NSCLC) was 8.6 µM. It also gave a GI50 (ACHN renal) of 12.6 µM, a TGI (ACHN renal) of 25.2 µM and a GI50 (BT-549 breast) of 2170 nM. For the same molecule, the TGI (BT-549 breast) was 3.69 µM, the GI50 (CAKI-1 renal) was 7.3 µM and the TGI (CAKI-1 renal) was 19.4 µM. It also gave a GI50 (CCRF-CEM leukemia) of 1610 nM, a TGI (CCRF-CEM leukemia) of 2960 nM and a GI50 (COLO 205 colon) of 1270 nM. The TGI (COLO 205 colon) was 14.5 µM, the GI50 (DU-145 prostate) was 15.4 µM and the TGI (DU-145 prostate) was 28.8 µM. The GI50 (HCC-2998 colon) was 3.72 µM, the TGI (HCC-2998 colon) was 17.6 µM and the GI50 (HCT-116 colon) was 1180 nM. The TGI (HCT-116 colon) was 2430 nM, the GI50 (HCT-15 colon) was 1820 nM and the TGI (HCT-15 colon) was 3.6 µM. It also gave a GI50 (HL-60(TB) leukemia) of 956 nM, a TGI (HL-60(TB) leukemia) of 2120 nM and a GI50 (HOP-62 NSCLC) of 13.8 µM. It also gave a TGI (HOP-62 NSCLC) of 26.8 µM, a GI50 (HOP-92 NSCLC) of 6.68 µM and a TGI (HOP-92 NSCLC) of 19.4 µM. The GI50 (HT29 colon) was 1040 nM, the TGI (HT29 colon) was 2220 nM and the GI50 (IGROV1 ovarian) was 13.2 µM. It also gave a TGI (IGROV1 ovarian) of 26 µM, a GI50 (KM12 colon) of 1570 nM and a TGI (KM12 colon) of 3.11 µM. For the same molecule, the GI50 (LOX IMVI melanoma) was 1950 nM, the TGI (LOX IMVI melanoma) was 3.37 µM and the GI50 (M14 melanoma) was 798 nM. For the same molecule, the TGI (M14 melanoma) was 12.3 µM, the GI50 (MALME-3M melanoma) was 289 nM and the TGI (MALME-3M melanoma) was 1460 nM. For the same molecule, the GI50 (MCF7 breast) was 1430 nM, the TGI (MCF7 breast) was 2790 nM and the GI50 (MDA-MB-231 breast) was 1550 nM. It also gave a TGI (MDA-MB-231 breast) of 2980 nM, a GI50 (MDA-MB-435 melanoma) of 4.56 µM and a TGI (MDA-MB-435 melanoma) of 19.2 µM. It also gave a GI50 (MDA-MB-468 breast) of 10.8 µM, a TGI (MDA-MB-468 breast) of 22.8 µM and a GI50 (MOLT-4 leukemia) of 1280 nM. It also gave a TGI (MOLT-4 leukemia) of 2540 nM, a GI50 (NCI-H226 lung) of 12.4 µM and a TGI (NCI-H226 lung) of 25 µM. It also gave a GI50 (NCI-H23 lung) of 13.7 µM, a TGI (NCI-H23 lung) of 26.7 µM and a GI50 (NCI-H322M lung) of 10.9 µM. It also gave a TGI (NCI-H322M lung) of 22.9 µM, a GI50 (NCI-H460 NSCLC) of 1650 nM and a TGI (NCI-H460 NSCLC) of 3.26 µM. For the same molecule, the GI50 (NCI-H522 lung) was 3.05 µM, the TGI (NCI-H522 lung) was 17.8 µM and the GI50 (NCI/ADR-RES ovarian) was 10.6 µM. It also gave a TGI (NCI/ADR-RES ovarian) of 22.4 µM, a GI50 (OVCAR-3 ovarian) of 1740 nM and a TGI (OVCAR-3 ovarian) of 3.31 µM. It also gave a GI50 (OVCAR-4 ovarian) of 2630 nM, a TGI (OVCAR-4 ovarian) of 14.1 µM and a GI50 (OVCAR-5 ovarian) of 14.4 µM. The TGI (OVCAR-5 ovarian) was 27.6 µM, the GI50 (OVCAR-8 ovarian) was 11.3 µM and the TGI (OVCAR-8 ovarian) was 23.5 µM. It also gave a GI50 (PC-3 prostate) of 13.6 µM, a TGI (PC-3 prostate) of 26.6 µM and a GI50 (RPMI-8226 leukemia) of 745 nM. For the same molecule, the TGI (RPMI-8226 leukemia) was 2000 nM, the GI50 (RXF 393 renal) was 1660 nM and the TGI (RXF 393 renal) was 3.59 µM. For the same molecule, the GI50 (SF-268 CNS) was 10.4 µM, the TGI (SF-268 CNS) was 22.2 µM and the GI50 (SF-295 CNS) was 19.5 µM. It also gave a TGI (SF-295 CNS) of 33.7 µM, a GI50 (SF-539 CNS) of 1320 nM and a TGI (SF-539 CNS) of 2600 nM. It also gave a GI50 (SK-MEL-2 melanoma) of 2460 nM, a TGI (SK-MEL-2 melanoma) of 8.05 µM and a GI50 (SK-MEL-28 melanoma) of 1780 nM. For the same molecule, the TGI (SK-MEL-28 melanoma) was 14.9 µM, the GI50 (SK-MEL-5 melanoma) was 1440 nM and the TGI (SK-MEL-5 melanoma) was 16.4 µM. The GI50 (SK-OV-3 ovarian) was 1940 nM, the TGI (SK-OV-3 ovarian) was 3.89 µM and the GI50 (SN12C renal) was 17.4 µM. For the same molecule, the TGI (SN12C renal) was 31.2 µM, the GI50 (SNB-19 CNS) was 15.7 µM and the TGI (SNB-19 CNS) was 29.2 µM. It also gave a GI50 (SR leukemia) of 1660 nM, a TGI (SR leukemia) of 3.02 µM and a GI50 (SW-620 colon) of 1840 nM. For the same molecule, the TGI (SW-620 colon) was 3.29 µM, the GI50 (T-47D breast) was 12.1 µM and the TGI (T-47D breast) was 24.6 µM. It also gave a GI50 (TK-10 renal) of 12.9 µM, a TGI (TK-10 renal) of 25.5 µM and a GI50 (U251 glioblastoma) of 1820 nM. The TGI (U251 glioblastoma) was 3.31 µM, the GI50 (UACC-257 melanoma) was 1060 nM and the TGI (UACC-257 melanoma) was 2240 nM. The GI50 (UACC-62 melanoma) was 1350 nM, the TGI (UACC-62 melanoma) was 13.8 µM and the GI50 (UO-31 renal) was 11.4 µM. For the same molecule, the TGI (UO-31 renal) was 23.5 µM.
